Reference: patent US6297250A, “Pyrimidopyrimidine compounds” (Newcastle University Ventures Limited, priority 1997, dated 2001)
Where “and” joins values, the source holds several entries; their conditions need not be identical. Identical values can stand only once. Like-named read-outs stand apart in the source and are kept apart here.

Tested on: L1210 cells
Experiment: Nucleoside transport inhibition assay: inhibition of 3H-thymidine uptake, with or without AGP or HSA
Type: cell-based, murine
Conditions: for inhibition at 1 µM: L1210, 1 μM compound; for inhibition at 10 µM: L1210, 10 μM compound; for Effect of AGP on the inhibition of thymidine uptake: in words; for inhibition at 0.1 µM: L1210, 0.1 μM compound; for inhibition at 0.25 µM: L1210, 0.25 μM compound
Description: In vitro activity. […] For testing the compounds an established nucleoside transport assay involving measurement of thymidine uptake was adapted. Murine leukaemia L1210 cells were used in this assay as their nucleoside transport characteristics are well known. This assay for measuring thymidine uptake used a modification of the rapid mixing technique of Wohleheuter, R. […] Materials used included a transport buffer comprising 130 mM NaCl, 5 mM KC1, 1 mM MgCl, 5 mM NaH2 PO4, 10 mM glucose and 10 mM HEPES. This buffer was made up as sterile 5× concentrate and reconstituted in distilled water and adjusted to pH 7.4 immediately prior to carrying out the assay. […] The supernatant was aspirated and the cells were washed with ice-cold transport buffer and centrifuged again at 1000 rpm for 5 minutes at 4° C. The supernatant was removed and the cells were resuspended in ice-cold transport buffer to give a final cell density of 2-4×10^7 cells/mi. Cells were left on ice for 30 minutes recovery prior to starting the assay. […] The suspension was mixed well and 100 μl was layered onto 150 μl silicone oil (9:11 Dow Corning 556 (Sp.Gr. 0.98):Dow Corning 550 (Sp.Gr. 1.068) (final Sp.Gr. 1.028) overlaying 50 μl 3M KOH in 6 replicate 0.5 ml microfuge tubes. […] The tubes were immediately transferred to a microfuge (Eppendorf) and spun at 12000 rpm for 2 minutes to pellet the cells through the oil and into the KOH. The tubes were capped and the cells left to solubilise in the KOH for 1 hour. Cell number and viability for each run was determined by haemocytometer counting using trypan blue exclusion. […] The tubes were capped and cut in the oil layer such that the bottom portion (cells solubilised in KOH) fell into a 20 ml scintillation vial. 1 ml 0.25M acetic acid followed by 1 ml air was injected into the tube using a 2 ml syringe and 23-gauge needle to disperse and neutralise the KOH-solubilisedcells. 10 ml of Optiphase HiSafe™ scintillant was added and the vials capped and shaken. […] The [^14 C]:[^3 H] ratio was used to calculate the amount of non-transported contaminating [^3 H]thymidine in the extracellular space.

[1] = Mus musculus, +5 mg/ml AGP vs no AGP, read-out: % Reduction (of inhibition by AGP)
[2] = Mus musculus, +5 mg/ml AGP, read-out: % Inhibition of 3H-thymidine uptake, +5 mg/ml AGP
[3] = Mus musculus, no AGP, read-out: % Inhibition of 3H-thymidine uptake, No AGP
[4] = Mus musculus, no AGP, 5% DMSO, read-out: % Inhibition of 3H-thymidine uptake, No AGP (5% DMSO)
[5] = 0.1 μM compound, no AGP, 0.1 µM

SMILES	IC50 (Mus musculus, L1210, no AGP)	IC50 (no AGP)	inhibition at 1 µM [3]	inhibition at 10 µM [3]	also measured
C=CCOc1nc(N2CCCCC2)c2nc(OCC=C)nc(N3CCCCC3)c2n1 [NU3072, 2,6-Di-allyloxy-4,8-dipiperidinopyrimidopyrimidine]	–	–	–	–	% Inhibition of 3H-thymidine uptake, No AGP (5% DMSO) (100 μM compound, no AGP, 5% DMSO, 100 µM): 63%; inhibition at 10 µM [4]: 52 ± 7%; inhibition at 100 µM (Mus musculus, L1210, 100 μM compound, no AGP, 5% DMSO, read-out: % Inhibition of 3H-thymidine uptake, No AGP (5% DMSO)): 66%
CC(O)COc1nc(N2CCCCC2)c2nc(OCC(C)O)nc(N3CCCCC3)c2n1 (stereo not shown) [NU3077, 2,6-Di(2'-hydroxypropoxy)-4,8-dipiperidinopyrimidopyrimidine]	900 nM	1130 nM	47 ± 8%	92 ± 10%	% Inhibition of 3H-thymidine uptake, No AGP (1 μM compound, no AGP, 1 µM): 44 ± 8%; inhibition at 1 µM [1]: 55%; inhibition at 1 µM [2]: 20 ± 10%; inhibition at 10 µM [1]: 25%; inhibition at 10 µM [2]: 69 ± 9%; Effect of AGP on the inhibition of thymidine uptake: no significant reduction
OCCNc1nc(NCc2ccccc2)c2nc(NCCO)nc(NCc3ccccc3)c2n1 [NU3101, 2,6-Di-(2-hydroxyethylamino)-4,8-dibenzylaminopyrimidopyrimidine]	–	–	58%	–	inhibition at 0.1 µM (Mus musculus, no AGP): 2%
CC(=O)COc1nc(N2CCCCC2)c2nc(OCC(C)=O)nc(N3CCCCC3)c2n1 [NU3066, 2,6-Di(-2-oxopropoxy)-4,8-dipiperidinopyrimidopyrimidine]	–	–	–	–	inhibition at 10 µM [4]: 58 ± 3%
OCCN(CCO)c1nc(NCc2ccc(Cl)cc2)c2nc(N(CCO)CCO)nc(NCc3ccc(Cl)cc3)c2n1 [NU3083, 2,6-bis(Diethanolamino)-4,8-di[(4'-chlorobenzyl)amino]pyrimido pyrimidine]	1110 nM	–	53 ± 15%	92 ± 14%	–
COCCOc1nc(N(Cc2ccccc2)Cc2ccccc2)c2nc(OCCOC)nc(N(Cc3ccccc3)Cc3ccccc3)c2n1 [NU3094, 2,6-di(-2-methoxyethoxy)-4,8-bis(dibenzylamino) pyrimidopyrimidine]	–	–	9 ± 10%	15 ± 4%	–
OCCCOc1nc(N2CCCCC2)c2nc(OCCCO)nc(N3CCCCC3)c2n1 [NU3085, 2,6-Di(3'-hydroxypropoxy)-4,8-dipiperidinopyrimidopyrimidine]	2360 nM	–	35 ± 5%	–	% Inhibition of 3H-thymidine uptake, No AGP (10 μM compound, no AGP, 10 µM): 100% and 76%
CC(C)CCOc1nc(N2CCCCC2)c2nc(OCCC(C)C)nc(N3CCCCC3)c2n1 [NU3070, 2,6-Di-(3'-methylbutoxy)-4,8-dipiperidinopyrimidopyrimidine]	–	–	–	–	% Inhibition of 3H-thymidine uptake, No AGP (5% DMSO) (10 μM compound, no AGP, 5% DMSO, 10 µM): 51%; inhibition at 10 µM [4]: 46%
OCCN(CCO)c1nc(NCc2ccc(C(F)(F)F)cc2)c2nc(N(CCO)CCO)nc(NCc3ccc(C(F)(F)F)cc3)c2n1 [NU3079, 2,6-bis(Diethanolamino)-4,8-di[(4'-trifluoromethylbenzyl)amino]pyrimido pyrimidine]	–	–	32 ± 11%	60 ± 7%	–

Now from value to molecule, other results behind:

IC50 (Mus musculus, L1210, no AGP)	IC50 (no AGP)	SMILES	inhibition at 1 µM [3]	inhibition at 10 µM [3]	also measured
670 nM	1200 nM	COc1ccc(CNc2nc(OCCO)nc3c(NCc4ccc(OC)cc4)nc(OCCO)nc23)cc1 [NU3089, 2,6-Di(2'-hydroxyethoxy)-4,8-di(4'-methoxybenzylamino)pyrimidopyrimidine]	40 ± 19%	88 ± 11%	% Inhibition of 3H-thymidine uptake, No AGP (1 μM compound, no AGP, 1 µM): 24 ± 18%; inhibition at 1 µM [1]: 0%; inhibition at 1 µM [2]: 28 ± 25%
190 nM	–	COc1ccc(CN(C)c2nc(OCCCO)nc3c(N(C)Cc4ccc(OC)cc4)nc(OCCCO)nc23)cc1 [NU3100, 2,6-Di-(3-hydroxypropoxy)-4,8-di-(N-[4-methoxybenzyl]-N-methyl)aminopyrimidopyrimidine]	88%	–	–
–	1010 nM and 800 nM	CN(Cc1ccccc1)c1nc(OCCO)nc2c(N(C)Cc3ccccc3)nc(OCCO)nc12 [NU3103, 2,6-Di-(2-hydroxyethoxy)-4,8-di-(N-benzyl-N-methyl)aminopyrimidopyrimidine]	–	90%	% Inhibition of 3H-thymidine uptake, No AGP [5]: 18%; % Inhibition of 3H-thymidine uptake, No AGP (1 μM compound, no AGP, 1 µM): 50% and 60%; % Inhibition of 3H-thymidine uptake, No AGP (10 μM compound, no AGP, 10 µM): 84%; % Inhibition of 3H-thymidine uptake, +5 mg/ml AGP (+5 mg/ml AGP, compound concentration not assignable from the table): 21% and 23%; inhibition at 0.1 µM (Mus musculus, no AGP): 12%
2400 nM	–	COCCOc1nc(NCc2ccccc2)c2nc(OCCOC)nc(NCc3ccccc3)c2n1 [NU3095, 2,6-di(-2-methoxyethoxy)-4,8-dibenzylaminopyrimidopyrimidine]	31.2%	78.4 ± 4.2%	–
–	220 nM and 240 nM	COc1ccc(CN(C)c2nc(OCCCO)nc3c(N(C)Cc4ccc(OC)cc4)nc(OCCCO)nc23)cc1 [NU3090, 2,6-Di(3'-hydroxypropoxy)-4,8-di[(N-4'-methoxybenzylmethyl)amino]pyrimidopyrimidine]	–	–	% Reduction (of inhibition by AGP) (1 μM compound, +5 mg/ml AGP vs no AGP): 53%; % Inhibition of 3H-thymidine uptake, +5 mg/ml AGP (1 μM compound, +5 mg/ml AGP, 1 µM): 32 ± 10% and 32%; % Inhibition of 3H-thymidine uptake, No AGP (1 μM compound, no AGP, 1 µM): 74 ± 18% and 69 ± 19%; % Inhibition of 3H-thymidine uptake, No AGP (10 μM compound, no AGP): 100 ± 0%
980 nM	840 nM	COc1ccc(CN(C)c2nc(N(CCO)CCO)nc3c(N(C)Cc4ccc(OC)cc4)nc(N(CCO)CCO)nc23)cc1 [NU3102, 2,6-bis-Diethanolamino-4,8-di-(N-[4-methoxybenzyl]-N-methyl)aminopyrimidopyrimidine]	51%	–	% Inhibition of 3H-thymidine uptake, No AGP [5]: 20%; % Inhibition of 3H-thymidine uptake, No AGP (1 μM compound, no AGP, 1 µM): 57%; % Inhibition of 3H-thymidine uptake, No AGP (10 μM compound, no AGP): insoluble; inhibition at 0.1 µM (Mus musculus, no AGP): 23%
–	1870 nM	CN(Cc1ccccc1)c1nc(OCCO)nc2c(N(C)Cc3ccccc3)nc(OCCO)nc12 [NU3098, 2,6-di(-2-hydroxyethoxy)-4,8-di(N-methylbenzylamino)pyrimidopyrimidine]	44%	–	% Inhibition of 3H-thymidine uptake, No AGP (10 μM compound, no AGP, 10 µM): 87 ± 11%
5900 nM	3800 nM	COCCOc1nc(N(C)Cc2ccccc2)c2nc(OCCOC)nc(N(C)Cc3ccccc3)c2n1 [NU3092, 2,6-Di(-2'-methoxyethoxy)-4,8-di[(N-benzylmethyl)amino]-pyrimidopyrimidine]	17 ± 8%	68 ± 8%	–
–	1440 nM	CN(Cc1ccccc1)c1nc(OCCCO)nc2c(N(C)Cc3ccccc3)nc(OCCCO)nc12 [NU3088, 2,6-Di(3'-hydroxypropoxy)-4,8-di[(N-benzylmethyl)amino]pyrimidopyrimidine]	–	–	% Inhibition of 3H-thymidine uptake, No AGP (1 μM compound, no AGP): 52 ± 19%; % Inhibition of 3H-thymidine uptake, No AGP (10 μM compound, no AGP, 10 µM): 100% and 77%
460 nM	820 nM	COc1ccc(CNc2nc(OCCCO)nc3c(NCc4ccc(OC)cc4)nc(OCCCO)nc23)cc1 [NU3097, 2,6-di(-3-hydroxypropoxy)-4,8-di(-4-methoxybenzylamino)pyrimidopyrimidine]	61 ± 8%	–	% Inhibition of 3H-thymidine uptake, No AGP (1 μM compound, no AGP, 1 µM): 62%; inhibition at 1 µM [1]: 21%; inhibition at 1 µM [2]: 49%
~300 nM	–	COc1ccc(CNc2nc(OCC(C)O)nc3c(NCc4ccc(OC)cc4)nc(OCC(C)O)nc23)cc1 (stereo not shown) [NU3087, 2,6-Di(2'-hydroxypropoxy)-4,8-bis(4'-methoxybenzylamino)pyrimidopyrimidine]	68 ± 14%	–	inhibition at 0.25 µM (Mus musculus, +0.125 mg/ml AGP vs no AGP, read-out: % Reduction (of inhibition by AGP)): 0%; inhibition at 0.25 µM (Mus musculus, +0.125 mg/ml AGP, read-out: % Inhibition of 3H-thymidine uptake, +0.125 mg/ml AGP): 20 ± 2%; inhibition at 0.25 µM [3]: 17%; Effect of AGP on the inhibition of thymidine uptake: no significant reduction
4600 nM	–	COCCOc1nc(N2CCCCC2)c2nc(OCCOC)nc(N3CCCCC3)c2n1 [NU3093, 2,6-Di(-2'-methoxyethoxy)-4,8-dipiperidinopyrimidopyrimidine]	20 ± 6%	63%	% Inhibition of 3H-thymidine uptake, No AGP (10 μM compound, no AGP, 10 µM): 68%
